Assay results taken from patent US7892840B2, “Media compositions for eluting compounds from matrices and methods for making and using them” (Medtronic MiniMed, Inc., priority 2008, dated 2011).
Where two headings read alike, the source gives them in different places.

Key:
[1] = cited from earlier work
[2] = Elution of dexamethasone sodium phosphate from drug coated pace maker leads in conventional media; type: physicochemical; conditions: e.g. a media that utilizes just a surfactant
Text: The data disclosed in FIGS. 1-6 provides illustrative embodiments of the methods of invention that examine the elution of dexamethasone sodium phosphate from a polymeric silicone matrix. These examples provide an illustration of the power of the methodological embodiments of the invention, in particular in view of the fact that the elution of dexamethasone sodium phosphate from silicone polymer/drug coated pace maker leads is known to be minimal in conventional solvents. For example, certain elution media and methods may not be ideal for all drugs (e.g. dexamethasone sodium phosphate). For example, dexamethasone sodium phosphate is water soluble whereas typical methodologies described in the art are more suitable for water insoluble or sparingly soluble drugs. […]
While the methodological embodiments of the invention can be used to assess the elution of a wide variety of compounds from a wide variety of matrices, these methods of the invention are particularly useful in the context of the manufacture of drug eluting implantable medical devices. For example, the safety and efficacy of drug coated pace maker leads are readily evaluated using the unique dissolution methods and materials disclosed herein. […]

[3] = type: physicochemical
Experimental: To evaluate buffers with different pH, Dexamethasone sodium phosphate can be dissolved in an elution media (e.g. one of the different embodiments of the invention disclosed herein). […] This concentration was about 10 times the concentration that might be observed if the drug from the typical device was completely eluted in about 75 mL of media.

[4] = cited from earlier work; remark: listed apart in the source

| SMILES | miscibility in alcohols and ether ([1]; alcohols and ether) | solubility in water [1] [g/100 mL] | elution of the drug in conventional media systems [2] | stability with respect to pH (rank order) [3] | elution from silicone polymer/drug coated pace maker leads in conventional solvents [4] | solubility in water ([1]; in words) | solubility in water ([1]; in words, listed as dexamethasone sodium phosphate) |
| --- | --- | --- | --- | --- | --- | --- | --- |
| OCc1ccccc1 [Benzyl alcohol, Phenylmethanol] | completely miscible | 4 |  |  |  |  |  |
| C[C@@H]1C[C@H]2[C@@H]3CCC4=CC(=O)C=C[C@]4(C)[C@@]3(F)[C@@H](O)C[C@]2(C)[C@@]1(O)C(=O)COP(=O)(O)O [Dexamethasone sodium phosphate] |  |  | minimal | pH 4>pH 7.5>pH 9 | minimal | freely soluble in water | water soluble |
